{
  "source": "patent EP2322149A1",
  "about": "“Methods and compositions for the treatment of ischemia” (Universidad del Pais Vasco, priority 2009, dated 2011)",
  "origin": "cited, not measured here",
  "key": {"[1]": {"target": "P2X6 (Homo sapiens, UniProt O15547)", "sequence (O15547 whole entry, species assumed)": "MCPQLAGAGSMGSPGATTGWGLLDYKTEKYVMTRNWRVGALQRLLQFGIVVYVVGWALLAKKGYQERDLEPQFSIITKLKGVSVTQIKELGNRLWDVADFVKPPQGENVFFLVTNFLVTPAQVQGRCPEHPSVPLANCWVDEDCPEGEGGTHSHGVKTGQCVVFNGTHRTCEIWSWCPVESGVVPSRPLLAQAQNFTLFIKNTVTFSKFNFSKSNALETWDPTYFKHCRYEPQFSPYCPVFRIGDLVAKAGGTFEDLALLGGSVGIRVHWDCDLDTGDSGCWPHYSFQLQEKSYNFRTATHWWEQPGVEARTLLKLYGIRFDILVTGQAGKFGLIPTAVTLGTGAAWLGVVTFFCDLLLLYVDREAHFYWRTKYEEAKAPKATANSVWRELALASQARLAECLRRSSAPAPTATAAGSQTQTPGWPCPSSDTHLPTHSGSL", "conditions": "read-out: IC50 P2X6; cited from earlier work"}, "[2]": {"target": "T1, P2X7 (Homo sapiens, UniProt Q99572)", "T1 sequence (Q99572 1-595)": "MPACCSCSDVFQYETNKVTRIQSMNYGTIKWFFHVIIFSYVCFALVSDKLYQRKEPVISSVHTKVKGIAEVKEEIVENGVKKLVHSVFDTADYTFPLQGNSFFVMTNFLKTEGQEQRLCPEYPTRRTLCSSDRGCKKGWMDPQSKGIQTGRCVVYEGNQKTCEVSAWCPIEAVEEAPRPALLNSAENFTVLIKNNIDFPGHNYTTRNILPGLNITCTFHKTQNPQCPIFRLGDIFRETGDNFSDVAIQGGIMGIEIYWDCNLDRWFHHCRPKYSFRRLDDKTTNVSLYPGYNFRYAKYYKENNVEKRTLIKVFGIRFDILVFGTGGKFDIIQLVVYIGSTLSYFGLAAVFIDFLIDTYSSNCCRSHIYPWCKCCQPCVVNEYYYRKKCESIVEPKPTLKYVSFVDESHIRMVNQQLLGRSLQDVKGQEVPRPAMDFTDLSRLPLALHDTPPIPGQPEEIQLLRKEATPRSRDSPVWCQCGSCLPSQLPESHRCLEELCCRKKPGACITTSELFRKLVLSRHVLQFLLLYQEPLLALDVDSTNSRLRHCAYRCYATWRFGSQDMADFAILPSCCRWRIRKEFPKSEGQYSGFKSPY", "conditions": "cited from earlier work"}, "[3]": {"target": "T2, P2X1 (Homo sapiens, UniProt P51575)", "T2 sequence (P51575 1-399)": "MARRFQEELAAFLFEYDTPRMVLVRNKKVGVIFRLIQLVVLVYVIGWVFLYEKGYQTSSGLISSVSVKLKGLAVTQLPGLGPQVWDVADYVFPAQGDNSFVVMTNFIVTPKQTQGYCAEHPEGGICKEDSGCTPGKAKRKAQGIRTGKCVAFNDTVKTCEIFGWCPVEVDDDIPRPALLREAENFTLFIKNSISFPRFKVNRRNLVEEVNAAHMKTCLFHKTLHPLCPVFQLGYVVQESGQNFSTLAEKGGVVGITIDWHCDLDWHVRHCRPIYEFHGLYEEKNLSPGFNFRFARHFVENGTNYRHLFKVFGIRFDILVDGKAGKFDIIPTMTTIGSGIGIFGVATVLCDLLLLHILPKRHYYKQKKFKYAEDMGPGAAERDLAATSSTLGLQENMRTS", "conditions": "read-out: IC50 P2X1; cited from earlier work"}, "[4]": {"target": "T3, P2X3 (Homo sapiens, UniProt P56373)", "T3 sequence (P56373 1-397)": "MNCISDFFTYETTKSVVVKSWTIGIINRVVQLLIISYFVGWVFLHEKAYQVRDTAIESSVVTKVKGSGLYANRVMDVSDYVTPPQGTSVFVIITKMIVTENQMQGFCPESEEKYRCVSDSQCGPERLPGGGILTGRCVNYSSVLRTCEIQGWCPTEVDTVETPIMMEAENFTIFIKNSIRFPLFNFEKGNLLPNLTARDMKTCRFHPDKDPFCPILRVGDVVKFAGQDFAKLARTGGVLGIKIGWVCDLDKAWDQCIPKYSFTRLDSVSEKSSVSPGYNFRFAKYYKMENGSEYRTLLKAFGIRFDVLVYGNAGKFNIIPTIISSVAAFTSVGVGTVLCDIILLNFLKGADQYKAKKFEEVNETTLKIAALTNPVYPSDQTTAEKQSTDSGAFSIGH", "conditions": "read-out: IC50 P2X3; cited from earlier work"}, "[5]": {"target": "T4, P2X2 (Homo sapiens, UniProt Q9UBL9)", "T4 sequence (Q9UBL9 1-471)": "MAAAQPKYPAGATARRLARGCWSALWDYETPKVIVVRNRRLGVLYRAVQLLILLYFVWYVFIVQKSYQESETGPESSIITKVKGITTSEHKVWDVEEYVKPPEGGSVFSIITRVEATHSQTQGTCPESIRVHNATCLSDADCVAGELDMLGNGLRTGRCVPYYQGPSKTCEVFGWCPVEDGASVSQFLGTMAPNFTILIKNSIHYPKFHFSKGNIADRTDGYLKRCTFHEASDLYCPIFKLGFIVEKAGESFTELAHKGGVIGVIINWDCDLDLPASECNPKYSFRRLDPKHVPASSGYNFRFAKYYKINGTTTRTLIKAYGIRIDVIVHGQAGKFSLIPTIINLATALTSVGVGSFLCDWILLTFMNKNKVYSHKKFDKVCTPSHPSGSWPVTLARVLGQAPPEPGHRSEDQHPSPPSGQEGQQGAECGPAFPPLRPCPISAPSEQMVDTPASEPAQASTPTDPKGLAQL", "conditions": "read-out: IC50 P2X2; cited from earlier work"}, "[6]": {"target": "T5, P2X4 (Homo sapiens, UniProt Q99571)", "T5 sequence (Q99571 1-388)": "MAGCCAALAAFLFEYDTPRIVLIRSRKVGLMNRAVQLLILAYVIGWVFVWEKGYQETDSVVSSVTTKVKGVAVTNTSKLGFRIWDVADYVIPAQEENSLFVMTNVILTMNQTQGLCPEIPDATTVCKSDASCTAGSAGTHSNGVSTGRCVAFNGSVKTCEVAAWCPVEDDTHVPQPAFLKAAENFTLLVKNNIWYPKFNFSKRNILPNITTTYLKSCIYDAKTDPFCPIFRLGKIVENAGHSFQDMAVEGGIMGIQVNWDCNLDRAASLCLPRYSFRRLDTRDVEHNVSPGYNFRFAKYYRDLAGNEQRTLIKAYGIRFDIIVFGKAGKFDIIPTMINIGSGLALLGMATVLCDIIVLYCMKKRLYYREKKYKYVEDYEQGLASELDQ", "conditions": "read-out: IC50 P2X4; cited from earlier work"}, "[7]": {"target": "P2X5 (Homo sapiens, UniProt Q93086)", "sequence (Q93086 whole entry, species assumed)": "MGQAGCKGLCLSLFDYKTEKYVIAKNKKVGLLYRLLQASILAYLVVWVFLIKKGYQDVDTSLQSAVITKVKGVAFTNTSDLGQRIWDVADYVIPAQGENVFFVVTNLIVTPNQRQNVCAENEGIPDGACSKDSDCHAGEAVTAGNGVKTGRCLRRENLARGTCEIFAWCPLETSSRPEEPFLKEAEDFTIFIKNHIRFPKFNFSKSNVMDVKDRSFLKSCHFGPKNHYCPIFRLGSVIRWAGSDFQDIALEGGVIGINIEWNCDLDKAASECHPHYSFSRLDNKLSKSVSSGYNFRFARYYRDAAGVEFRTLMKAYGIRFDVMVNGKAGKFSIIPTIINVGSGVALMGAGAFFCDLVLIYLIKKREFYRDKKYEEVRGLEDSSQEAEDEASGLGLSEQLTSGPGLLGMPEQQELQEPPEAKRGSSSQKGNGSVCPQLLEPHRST", "conditions": "cited from earlier work"}},
  "data": [
    {"smiles": "Cc1cc(-c2ccc(/N=N/c3ccc4c(S(=O)(=O)O)cc(S(=O)(=O)O)c(N)c4c3O)c(C)c2)ccc1/N=N/c1ccc2c(S(=O)(=O)O)cc(S(=O)(=O)O)c(N)c2c1O", "note": "[Evans Blue]", "values": [
      {"measurement": "IC50", "setting": "[1]", "result": "1 to 400", "unit": "µM"},
      {"measurement": "IC50", "setting": "[2]", "result": "1 to 400", "unit": "µM"},
      {"measurement": "IC50", "setting": "[3]", "result": 1400, "unit": "µM"},
      {"measurement": "IC50", "setting": "[4]", "result": 1400, "unit": "µM"},
      {"measurement": "IC50", "setting": "[5]", "result": "1 to 400", "unit": "µM"},
      {"measurement": "IC50", "setting": "[6]", "result": "1 to 400", "unit": "µM"},
      {"measurement": "IC50", "setting": "[7]", "result": "1 to 400", "unit": "µM"}
    ]}
  ]
}
